Structures can show the parent of a compound that is named as a salt.
Legend:
Format in all cases: cell-based
[1] = test system: Staphylococcus aureus 1517; test: MIC in agar; conditions: in agar; Staphylococcus aureus 1517; read-out: M.I.C.
Text: (§1) a. Antibacterial effectiveness of compounds of
(§2) Examples 6 and 7 in agar.
(§3) (μg/ml) in agar of compound

[2] = test system: Enterobacter cloacae N1; test: MIC in agar; conditions: in agar; Enterobacter cloacae N1; read-out: M.I.C.
Text: as §1, §2, §3

[3] = test system: Staphylococcus aureus Russell; test: MIC in agar; conditions: in agar; Staphylococcus aureus Russell; read-out: M.I.C.
Text: as §1, §2, §3

[4] = test system: Proteus morganii 1580; test: MIC in agar; conditions: Morganella morganii; in agar; Proteus morganii 1580; read-out: M.I.C.
Text: as §1, §2, §3

[5] = test system: Staphylococcus aureus Oxford; test: MIC in agar; conditions: in agar; Staphylococcus aureus Oxford; read-out: M.I.C.
Text: as §1, §2, §3

[6] = test system: Serratia marcescens US20; test: MIC in agar; conditions: in agar; Serratia marcescens US20; read-out: M.I.C.
Text: as §1, §2, §3

[7] = test system: Proteus rettgeri WM16; test: MIC in agar; conditions: Providencia rettgeri; in agar; Proteus rettgeri WM16; read-out: M.I.C.
Text: as §1, §2, §3

[8] = test system: Proteus mirabilis C977; test: MIC in agar; conditions: in agar; Proteus mirabilis C977; read-out: M.I.C.
Text: as §1, §2, §3

[9] = test system: Bacillus subtilis A; test: MIC in agar; conditions: in agar; Bacillus subtilis A; read-out: M.I.C.
Text: as §1, §2, §3

[10] = test system: Klebsiella aerogenes A; test: MIC in agar; conditions: in agar; Klebsiella aerogenes A; read-out: M.I.C.
Text: as §1, §2, §3

[11] = test system: Shigella sonnei MB 11967; test: MIC in agar; conditions: MB11967
Text: as §1, §2, §3

[12] = test system: Escherichia coli 0111; test: MIC in agar
Text: as §1, §2, §3

[13] = test system: Salmonella typhimurium CT10; test: MIC in agar; conditions: Salmonella enterica; in agar; Salmonella typhimurium CT10; read-out: M.I.C.
Text: as §1, §2, §3

[14] = test system: Streptococcus pyogenes CN10; test: MIC in agar; conditions: in agar; Streptococcus pyogenes CN10; read-out: M.I.C.
Text: as §1, §2, §3

[15] = test system: Citrobacter freundii E8; test: MIC in agar; conditions: in agar; Citrobacter freundii E8; read-out: M.I.C.
Text: as §1, §2, §3

[16] = test system: Pseudomonas aeruginosa A; test: MIC in agar; conditions: in agar; Pseudomonas aeruginosa A; read-out: M.I.C.
Text: as §1, §2, §3

[17] = test system: Proteus vulgaris W091; test: MIC in agar; conditions: in agar; Proteus vulgaris W091; read-out: M.I.C.
Text: as §1, §2, §3

[18] = test system: Streptococcus pneumoniae CN33; test: MIC in agar
Text: as §1, §2, §3

[19] = test system: Escherichia coli JT39; test: MIC in agar; conditions: in agar; Escherichia coli JT39; read-out: M.I.C.
Text: as §1, §2, §3

[20] = test system: Streptococcus faecalis I; test: MIC in agar; conditions: Enterococcus faecalis; in agar; Streptococcus faecalis I; read-out: M.I.C.
Text: as §1, §2, §3

[21] = test system: E. coli ESS; test: MIC in agar; conditions: Escherichia coli
Text: | (μg/ml) in agar of compound

[22] = test system: Staphylococcus aureus ATCC 25923; test: Antibacterial effectiveness in agar; conditions: Staphylococcus aureus, ATCC25923
Text: (§4) b. Antibacterial effectiveness of the compound of […]

[23] = test system: Proteus vulgaris NCTC 4395; test: Antibacterial effectiveness in agar; conditions: Proteus vulgaris, NCTC4395
Text: as §4

[24] = test system: Enterbacter aerogenes T660; test: Antibacterial effectiveness in agar
Text: as §4

[25] = test system: Escherichia coli JT20R+; test: Antibacterial effectiveness in agar
Text: as §4

[26] = test system: Bacteroides fragilis B3; test: Antibacterial effectiveness in agar; conditions: Bacteroides fragilis, B3
Text: as §4

[27] = test system: Staphylococcus aureus T150+; test: Antibacterial effectiveness in agar; conditions: Staphylococcus aureus
Text: as §4

[28] = test system: Klebsiella aerogenes T219; test: Antibacterial effectiveness in agar; conditions: Klebsiella aerogenes, T219
Text: as §4

[29] = test system: Staphylococcus aureus Smith; test: Antibacterial effectiveness in agar; conditions: Staphylococcus aureus
Text: as §4

[30] = test system: Citrobacter freundii W18; test: Antibacterial effectiveness in agar; conditions: Citrobacter freundii, W18
Text: as §4

[31] = test system: Pseudomonas aeruginosa NCTC 10662; test: Antibacterial effectiveness in agar; conditions: Pseudomonas aeruginosa, NCTC10662
Text: as §4

[32] = test system: Escherichia coli JT1; test: Antibacterial effectiveness in agar; conditions: Escherichia coli, JT1
Text: as §4

[33] = test system: Staphylococcus aureus ME9+; test: Antibacterial effectiveness in agar; conditions: Staphylococcus aureus
Text: as §4

[34] = test system: Enterobacter cloacea T749; test: Antibacterial effectiveness in agar; conditions: Enterobacter, T749
Text: as §4

[35] = test system: Proteus morganii I; test: Antibacterial effectiveness in agar; conditions: Morganella morganii
Text: as §4

[36] = test system: Escherichia coli Ba78R+; test: Antibacterial effectiveness in agar; conditions: Escherichia coli
Text: as §4

[37] = test system: Escherichia coli JT4R+; test: Antibacterial effectiveness in agar
Text: as §4

[38] = test system: Bacteroides fragilis WS41; test: Antibacterial effectiveness in agar; conditions: Bacteroides fragilis, WS41
Text: as §4

[39] = test system: Bacteroides fragilis BC16; test: Antibacterial effectiveness in agar; conditions: Bacteroides fragilis, BC16
Text: as §4

[40] = test system: Bacteroides fragilis WS1; test: Antibacterial effectiveness in agar; conditions: Bacteroides fragilis, WS1
Text: as §4

[41] = test system: Escherichia coli 5; test: Antibacterial effectiveness in agar; conditions: Escherichia coli, 5
Text: as §4

[42] = test system: Streptococcus faecalis T1101; test: Antibacterial effectiveness in agar; conditions: Enterococcus faecalis, T1101
Text: as §4

[43] = test system: Escherichia coli NCTC 15418; test: Antibacterial effectiveness in agar; conditions: Escherichia coli, NCTC15418
Text: as §4

[44] = test system: Citrobacter freundii T221; test: Antibacterial effectiveness in agar; conditions: Citrobacter freundii, T221
Text: as §4

[45] = test system: Enterobacter cloacea NCTC 10005; test: Antibacterial effectiveness in agar; conditions: Enterobacter, NCTC10005
Text: as §4

[46] = test system: Proteus mirabilis T318; test: Antibacterial effectiveness in agar; conditions: Proteus mirabilis, T318
Text: as §4

[47] = test system: Proteus rettgeri R110; test: Antibacterial effectiveness in agar; conditions: Providencia rettgeri, R110
Text: as §4

[48] = test system: Klebsiella aerogenes I281; test: Antibacterial effectiveness in agar; conditions: Klebsiella aerogenes, I281
Text: as §4

[49] = test system: Klebsiella aerogenes R112; test: Antibacterial effectiveness in agar; conditions: Klebsiella aerogenes, R112
Text: as §4

[50] = test system: Staphylococcus aureus T67+; test: Antibacterial effectiveness in agar; conditions: Staphylococcus aureus
Text: as §4

[51] = test system: Proteus mirabilis 889; test: Antibacterial effectiveness in agar; conditions: Proteus mirabilis, 889
Text: as §4

[52] = test system: Proteus morganii T361; test: Antibacterial effectiveness in agar; conditions: Morganella morganii, T361
Text: as §4

[53] = test system: Serratia marcescens Wo146; test: Antibacterial effectiveness in agar; conditions: Serratia marcescens, WO146
Text: as §4

[54] = test system: Bacteroides fragilis 2118; test: Antibacterial effectiveness in agar; conditions: Bacteroides fragilis, 2118
Text: as §4

[55] = test system: Bacteroides fragilis VP1 8249; test: Antibacterial effectiveness in agar; conditions: Bacteroides fragilis, VP18249
Text: as §4

[56] = test system: Bacteroides fragilis BC4; test: Antibacterial effectiveness in agar; conditions: Bacteroides fragilis, BC4
Text: as §4

[57] = test system: Proteus vulgaris X; test: Antibacterial effectiveness in agar; conditions: Proteus vulgaris
Text: as §4

[58] = test system: Bacteroides fragilis WS12; test: Antibacterial effectiveness in agar; conditions: Bacteroides fragilis, WS12
Text: as §4

[59] = test system: Enterbacter aerogenes NCTC 10006; test: Antibacterial effectiveness in agar
Text: as §4

[60] = test system: Escherichia coli E96R+; test: Antibacterial effectiveness in agar
Text: as §4

[61] = test system: Proteus rettgeri I; test: Antibacterial effectiveness in agar; conditions: Providencia rettgeri
Text: as §4

[62] = test system: Pseudomonas aeruginosa W975; test: Antibacterial effectiveness in agar; conditions: Pseudomonas aeruginosa, W975
Text: as §4

[63] = test system: Serratia marcescens SM27; test: Antibacterial effectiveness in agar; conditions: Serratia marcescens, SM27
Text: as §4

[64] = test system: Pseudomonas aeruginosa Dalgleish; test: Antibacterial effectiveness in agar; conditions: Pseudomonas aeruginosa
Text: as §4

[65] = test system: Escherichia coli JT425C+; test: Antibacterial effectiveness in agar; conditions: Escherichia coli
Text: as §4

[66] = test system: Escherichia coli JT414C+; test: Antibacterial effectiveness in agar; conditions: Escherichia coli
Text: as §4

[67] = test system: Escherichia coli E8; test: Antibacterial effectiveness in agar; conditions: Escherichia coli, E8
Text: as §4

[68] = test system: Streptococcus faecalis C90; test: Antibacterial effectiveness in agar; conditions: Enterococcus faecalis, C90
Text: as §4

[69] = test system: Klebsiella aerogenes Va2R+; test: Antibacterial effectiveness in agar; conditions: Klebsiella aerogenes
Text: as §4

Compound: C[C@H](O)[C@@H]1C(=O)N2C(C(=O)O)=C(S/C=C\C(=O)O)C[C@H]12 [Example 24, The Disodium salt of (5R,6R)-3-[(Z)-2-carboxyethenylthio]-6-[(S)-1-hydroxyethyl]-7-oxo-1-azabicyclo[3.2.0]hept-2-ene-2-carboxylic acid]
- MIC [1]: 5 µg/mL
- MIC [2]: 0.5 µg/mL
- MIC [3]: 0.5 µg/mL
- MIC [4]: 0.5 µg/mL
- MIC [5]: 0.5 µg/mL
- MIC [6]: 2.5 µg/mL
- MIC [7]: 0.5 µg/mL
- MIC [8]: 0.5 µg/mL
- MIC [9]: ≤ 0.1 µg/mL
- MIC [10]: 0.2 µg/mL
- MIC [11]: 0.5 µg/mL
- MIC [12]: 0.2 µg/mL
- MIC [13]: 0.5 µg/mL
- MIC [14]: ≤ 0.1 µg/mL
- MIC [15]: 1.2 µg/mL
- MIC [16]: > 50 µg/mL
- MIC [17]: 0.5 µg/mL
- MIC [18]: ≤ 0.1 µg/mL
- MIC [19]: 5 µg/mL
- MIC [20]: 2.5 µg/mL
- MIC [21]: ≤ 0.1 µg/mL

Compound: CCSC1=C(C(=O)[O-])N2C(=O)[C@@H]([C@H](C)OS(=O)(=O)[O-])[C@H]2C1.[Na+].[Na+] [Example 14, Disodium (5R,6R)-3-ethylthio-6-[(S)-1-sulphonato-oxyethyl]-7-oxo-1-azabicyclo[3.2.0]hept-2-ene-2-carboxylate]
- MIC [22]: 0.4 µg/mL
- MIC [23]: 0.2 µg/mL
- MIC [24]: 0.2 µg/mL
- MIC [25]: 0.8 µg/mL
- MIC [26]: 0.4 µg/mL
- MIC [27]: 0.4 µg/mL
- MIC [28]: ≤ 0.1 µg/mL
- MIC [29]: 0.4 µg/mL
- MIC [30]: 1.6 µg/mL
- MIC [31]: 50 µg/mL
- MIC [32]: ≤ 0.1 µg/mL
- MIC [33]: 1.6 µg/mL
- MIC [34]: 6.2 µg/mL
- MIC [35]: 0.4 µg/mL
- MIC [36]: 0.2 µg/mL
- MIC [37]: 0.4 µg/mL
- MIC [38]: 0.2 µg/mL
- MIC [39]: 1.6 µg/mL
- MIC [40]: 6.2 µg/mL
- MIC [41]: ≤ 0.1 µg/mL
- MIC [42]: 12.5 µg/mL
- MIC [43]: ≤ 0.1 µg/mL
- MIC [44]: 1.6 µg/mL
- MIC [45]: 6.2 µg/mL
- MIC [46]: 0.4 µg/mL
- MIC [47]: 0.2 µg/mL
- MIC [48]: ≤ 0.1 µg/mL
- MIC [49]: ≤ 0.1 µg/mL
- MIC [50]: 0.8 µg/mL
- MIC [51]: 0.8 µg/mL
- MIC [52]: 0.4 µg/mL
- MIC [53]: 1.6 µg/mL
- MIC [54]: 0.2 µg/mL
- MIC [55]: 0.4 µg/mL
- MIC [56]: 0.8 µg/mL
- MIC [57]: 0.4 µg/mL
- MIC [58]: 0.2 µg/mL
- MIC [59]: 0.4 µg/mL
- MIC [60]: ≤ 0.1 µg/mL
- MIC [61]: 0.4 µg/mL
- MIC [62]: 100 µg/mL
- MIC [63]: 0.4 µg/mL
- MIC [64]: 50 µg/mL
- MIC [65]: ≤ 0.1 µg/mL
- MIC [66]: 0.2 µg/mL
- MIC [67]: ≤ 0.1 µg/mL
- MIC [68]: 12.5 µg/mL
- MIC [69]: 0.8 µg/mL

— US4473578A, “β-Lactam antibiotics and their use” (Beecham Group Limited, priority 1979, dated 1984)
